Source: patent US20250296938A1, “Compounds that Interact with the Ras Superfamily for the Treatment of Cancers, Inflammatory Diseases, Rasopathies, and Fibrotic Disease” (SHY Therapeutics, LLC, priority 2018, published 2025)

What follows are compounds tested against T1, KRas G12D mutant (Homo sapiens, UniProt P01116, G12D) (assay: Ras GTP binding domain inhibition assay (Cy3-GTP/Cy5-GTP competition)). Settings: at 20 μM, with SOS; read-out: KRas G12D mutant + SOS: % inh.
T1 construct: fused on or other part: His tag, used for capture on nickel-coated plates
Method in brief: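 Ni-plate immobilised His-Ras, overnight 4 °C; cpd 20 μM (or dilution series for IC50), 1% DMSO, 3 h RT; optional His-Sos […] last hour; Cy3- or Cy5-GTP 100 nM, 45 min RT; 3× wash; bound fluorescence read.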

| inhibition at 20 µM [%] | SMILES |
| --- | --- |
| 26 to 50 | COC1CCN(c2nc(-c3nccn3C)nc3sc(-c4ccn(C)n4)c(-c4ccccc4)c23)CC1 [drawing 991] |
| 26 to 50 | CO[C@@H]1CCC(Nc2nc(-c3nccn3C)nc3sc(-c4ccn(C)n4)c(-c4ccccc4)c23)C1 (stereo partly drawn) [drawing 994] |
| 51 to 75 | CO[C@H]1CCC(Nc2nc(-c3nccn3C)nc3sc(-c4ccn(C)n4)c(-c4ccccc4)c23)C1 (stereo partly drawn) [drawing 995] |
| 1 to 25 | Cn1ccc(-c2sc3nc(-c4nccn4C)nc(NC4CCOCC4)c3c2-c2ccccc2)n1 [drawing 997] |
| 1 to 25 | COC1CCN(c2nc(-c3nccn3C)nc3sc(-c4ccn(C)n4)c(-c4ccccc4)c23)C1 (stereo not drawn) [drawing 998] |

More lines, now with the values behind:

| SMILES | inhibition at 20 µM [%] |
| --- | --- |
| COc1cccc(Cn2ccnc2-c2nc(O)c3scc(-c4ccccn4)c3n2)c1 [drawing 985] | 51 to 75 |
| Oc1nc(-c2nccn2Cc2ccccn2)nc2c(-c3ccccn3)csc12 [drawing 986] | 51 to 75 |
| COCCn1ccnc1-c1nc(O)c2scc(-c3ccccn3)c2n1 [drawing 987] | 51 to 75 |
| Cn1ccnc1-c1nc(O)c2scc(-c3ccccn3)c2n1 [drawing 988] | 51 to 75 |
| COCC(C)Nc1nc(-c2nccn2C)nc2sc(-c3ccccc3Cl)c(-c3cscn3)c12 (stereo not drawn) [drawing 989] | 51 to 75 |
| COCC(C)Nc1nc(-c2nccn2C)nc2sc(-c3cccc(OC)c3)c(-c3cscn3)c12 (stereo not drawn) [drawing 990] | 51 to 75 |
| Cn1ccc(-c2sc3nc(-c4nccn4C)nc(N4CCC5(CCOC5)C4)c3c2-c2ccccc2)n1 (stereo not drawn) [drawing 992] | 1 to 25 |
| Cn1ccc(-c2sc3nc(-c4nccn4C)nc(NCC4CCOC4)c3c2-c2ccccc2)n1 (stereo not drawn) [drawing 996] | 1 to 25 |

Same assay, conditions: at 20 μM, without SOS; read-out: KRas G12D mutant: % inh.

| inhibition at 20 µM [%] | SMILES |
| --- | --- |
| 26 to 50 | COC1CCN(c2nc(-c3nccn3C)nc3sc(-c4ccn(C)n4)c(-c4ccccc4)c23)CC1 [drawing 991] |
| 26 to 50 | CO[C@@H]1CCC(Nc2nc(-c3nccn3C)nc3sc(-c4ccn(C)n4)c(-c4ccccc4)c23)C1 (stereo partly drawn) [drawing 994] |
| 1 to 25 | CO[C@H]1CCC(Nc2nc(-c3nccn3C)nc3sc(-c4ccn(C)n4)c(-c4ccccc4)c23)C1 (stereo partly drawn) [drawing 995] |
| 1 to 25 | Cn1ccc(-c2sc3nc(-c4nccn4C)nc(NC4CCOCC4)c3c2-c2ccccc2)n1 [drawing 997] |
| 1 to 25 | COC1CCN(c2nc(-c3nccn3C)nc3sc(-c4ccn(C)n4)c(-c4ccccc4)c23)C1 (stereo not drawn) [drawing 998] |

Continued, compound first:

| SMILES | inhibition at 20 µM [%] |
| --- | --- |
| COc1cccc(Cn2ccnc2-c2nc(O)c3scc(-c4ccccn4)c3n2)c1 [drawing 985] | 76 to 100 |
| Oc1nc(-c2nccn2Cc2ccccn2)nc2c(-c3ccccn3)csc12 [drawing 986] | 76 to 100 |
| COCCn1ccnc1-c1nc(O)c2scc(-c3ccccn3)c2n1 [drawing 987] | 76 to 100 |
| Cn1ccnc1-c1nc(O)c2scc(-c3ccccn3)c2n1 [drawing 988] | 76 to 100 |
| COCC(C)Nc1nc(-c2nccn2C)nc2sc(-c3ccccc3Cl)c(-c3cscn3)c12 (stereo not drawn) [drawing 989] | 51 to 75 |
| COCC(C)Nc1nc(-c2nccn2C)nc2sc(-c3cccc(OC)c3)c(-c3cscn3)c12 (stereo not drawn) [drawing 990] | 51 to 75 |
| Cn1ccc(-c2sc3nc(-c4nccn4C)nc(N4CCC5(CCOC5)C4)c3c2-c2ccccc2)n1 (stereo not drawn) [drawing 992] | 26 to 50 |
| Cn1ccc(-c2sc3nc(-c4nccn4C)nc(NCC4CCOC4)c3c2-c2ccccc2)n1 (stereo not drawn) [drawing 996] | 26 to 50 |

Each compound was assayed against Rac-1 (Homo sapiens, UniProt P63000) in the same assay as above. Settings: with SOS, read-out: Rac-1 + SOS: % inh.
Method in brief: (§1)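 First, His-tagged protein is coated on nickel wells overnight at 4 °C. Next, compound (20 μM single point or serial dilution) is added for 3 h at room temperature, with or without Sos exchange factor in the last hour. Finally, 100 nM labelled GTP binds for 45 min and retained signal is measured.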

| inhibition at 20 µM [%] | SMILES |
| --- | --- |
| 26 to 50 | COC1CCN(c2nc(-c3nccn3C)nc3sc(-c4ccn(C)n4)c(-c4ccccc4)c23)CC1 [drawing 991] |
| 26 to 50 | CO[C@@H]1CCC(Nc2nc(-c3nccn3C)nc3sc(-c4ccn(C)n4)c(-c4ccccc4)c23)C1 (stereo partly drawn) [drawing 994] |
| 51 to 75 | CO[C@H]1CCC(Nc2nc(-c3nccn3C)nc3sc(-c4ccn(C)n4)c(-c4ccccc4)c23)C1 (stereo partly drawn) [drawing 995] |
| 26 to 50 | Cn1ccc(-c2sc3nc(-c4nccn4C)nc(NC4CCOCC4)c3c2-c2ccccc2)n1 [drawing 997] |
| 26 to 50 | COC1CCN(c2nc(-c3nccn3C)nc3sc(-c4ccn(C)n4)c(-c4ccccc4)c23)C1 (stereo not drawn) [drawing 998] |

More lines, now with the values behind:

| SMILES | inhibition at 20 µM [%] |
| --- | --- |
| COc1cccc(Cn2ccnc2-c2nc(O)c3scc(-c4ccccn4)c3n2)c1 [drawing 985] | 76 to 100 |
| Oc1nc(-c2nccn2Cc2ccccn2)nc2c(-c3ccccn3)csc12 [drawing 986] | 51 to 75 |
| COCCn1ccnc1-c1nc(O)c2scc(-c3ccccn3)c2n1 [drawing 987] | 76 to 100 |
| Cn1ccnc1-c1nc(O)c2scc(-c3ccccn3)c2n1 [drawing 988] | 76 to 100 |
| COCC(C)Nc1nc(-c2nccn2C)nc2sc(-c3ccccc3Cl)c(-c3cscn3)c12 (stereo not drawn) [drawing 989] | 26 to 50 |
| COCC(C)Nc1nc(-c2nccn2C)nc2sc(-c3cccc(OC)c3)c(-c3cscn3)c12 (stereo not drawn) [drawing 990] | 1 to 25 |
| Cn1ccc(-c2sc3nc(-c4nccn4C)nc(N4CCC5(CCOC5)C4)c3c2-c2ccccc2)n1 (stereo not drawn) [drawing 992] | 26 to 50 |
| Cn1ccc(-c2sc3nc(-c4nccn4C)nc(NCC4CCOC4)c3c2-c2ccccc2)n1 (stereo not drawn) [drawing 996] | 26 to 50 |

Same assay, conditions: without SOS, read-out: Rac-1: % inh.

| inhibition at 20 µM [%] | SMILES |
| --- | --- |
| 26 to 50 | COC1CCN(c2nc(-c3nccn3C)nc3sc(-c4ccn(C)n4)c(-c4ccccc4)c23)CC1 [drawing 991] |
| 26 to 50 | CO[C@@H]1CCC(Nc2nc(-c3nccn3C)nc3sc(-c4ccn(C)n4)c(-c4ccccc4)c23)C1 (stereo partly drawn) [drawing 994] |
| 51 to 75 | CO[C@H]1CCC(Nc2nc(-c3nccn3C)nc3sc(-c4ccn(C)n4)c(-c4ccccc4)c23)C1 (stereo partly drawn) [drawing 995] |
| 26 to 50 | Cn1ccc(-c2sc3nc(-c4nccn4C)nc(NC4CCOCC4)c3c2-c2ccccc2)n1 [drawing 997] |
| 26 to 50 | COC1CCN(c2nc(-c3nccn3C)nc3sc(-c4ccn(C)n4)c(-c4ccccc4)c23)C1 (stereo not drawn) [drawing 998] |

More lines, now with the values behind:

| SMILES | inhibition at 20 µM [%] |
| --- | --- |
| COc1cccc(Cn2ccnc2-c2nc(O)c3scc(-c4ccccn4)c3n2)c1 [drawing 985] | 76 to 100 |
| Oc1nc(-c2nccn2Cc2ccccn2)nc2c(-c3ccccn3)csc12 [drawing 986] | 76 to 100 |
| COCCn1ccnc1-c1nc(O)c2scc(-c3ccccn3)c2n1 [drawing 987] | 76 to 100 |
| Cn1ccnc1-c1nc(O)c2scc(-c3ccccn3)c2n1 [drawing 988] | 51 to 75 |
| COCC(C)Nc1nc(-c2nccn2C)nc2sc(-c3ccccc3Cl)c(-c3cscn3)c12 (stereo not drawn) [drawing 989] | 26 to 50 |
| COCC(C)Nc1nc(-c2nccn2C)nc2sc(-c3cccc(OC)c3)c(-c3cscn3)c12 (stereo not drawn) [drawing 990] | 26 to 50 |
| Cn1ccc(-c2sc3nc(-c4nccn4C)nc(N4CCC5(CCOC5)C4)c3c2-c2ccccc2)n1 (stereo not drawn) [drawing 992] | 26 to 50 |
| Cn1ccc(-c2sc3nc(-c4nccn4C)nc(NCC4CCOC4)c3c2-c2ccccc2)n1 (stereo not drawn) [drawing 996] | 1 to 25 |

Each compound was assayed against Rho-A (Homo sapiens, UniProt P61586) in the same assay as above. Settings: with SOS, read-out: Rho-A + SOS: % inh.
Method in brief: as §1

| inhibition at 20 µM [%] | SMILES |
| --- | --- |
| 0 | COC1CCN(c2nc(-c3nccn3C)nc3sc(-c4ccn(C)n4)c(-c4ccccc4)c23)CC1 [drawing 991] |
| 76 to 100 | CO[C@@H]1CCC(Nc2nc(-c3nccn3C)nc3sc(-c4ccn(C)n4)c(-c4ccccc4)c23)C1 (stereo partly drawn) [drawing 994] |
| 76 to 100 | CO[C@H]1CCC(Nc2nc(-c3nccn3C)nc3sc(-c4ccn(C)n4)c(-c4ccccc4)c23)C1 (stereo partly drawn) [drawing 995] |
| 51 to 75 | Cn1ccc(-c2sc3nc(-c4nccn4C)nc(NC4CCOCC4)c3c2-c2ccccc2)n1 [drawing 997] |
| 1 to 25 | COC1CCN(c2nc(-c3nccn3C)nc3sc(-c4ccn(C)n4)c(-c4ccccc4)c23)C1 (stereo not drawn) [drawing 998] |

Second part, the compound before the results:

| SMILES | inhibition at 20 µM [%] |
| --- | --- |
| COc1cccc(Cn2ccnc2-c2nc(O)c3scc(-c4ccccn4)c3n2)c1 [drawing 985] | 51 to 75 |
| Oc1nc(-c2nccn2Cc2ccccn2)nc2c(-c3ccccn3)csc12 [drawing 986] | 51 to 75 |
| COCCn1ccnc1-c1nc(O)c2scc(-c3ccccn3)c2n1 [drawing 987] | 51 to 75 |
| Cn1ccnc1-c1nc(O)c2scc(-c3ccccn3)c2n1 [drawing 988] | 76 to 100 |
| COCC(C)Nc1nc(-c2nccn2C)nc2sc(-c3ccccc3Cl)c(-c3cscn3)c12 (stereo not drawn) [drawing 989] | 26 to 50 |
| COCC(C)Nc1nc(-c2nccn2C)nc2sc(-c3cccc(OC)c3)c(-c3cscn3)c12 (stereo not drawn) [drawing 990] | 26 to 50 |
| Cn1ccc(-c2sc3nc(-c4nccn4C)nc(N4CCC5(CCOC5)C4)c3c2-c2ccccc2)n1 (stereo not drawn) [drawing 992] | 76 to 100 |
| Cn1ccc(-c2sc3nc(-c4nccn4C)nc(NCC4CCOC4)c3c2-c2ccccc2)n1 (stereo not drawn) [drawing 996] | 0 |

Same assay, conditions: without SOS, read-out: Rho-A: % inh.

| inhibition at 20 µM [%] | SMILES |
| --- | --- |
| 0 | COC1CCN(c2nc(-c3nccn3C)nc3sc(-c4ccn(C)n4)c(-c4ccccc4)c23)CC1 [drawing 991] |
| 0 | CO[C@@H]1CCC(Nc2nc(-c3nccn3C)nc3sc(-c4ccn(C)n4)c(-c4ccccc4)c23)C1 (stereo partly drawn) [drawing 994] |
| 51 to 75 | CO[C@H]1CCC(Nc2nc(-c3nccn3C)nc3sc(-c4ccn(C)n4)c(-c4ccccc4)c23)C1 (stereo partly drawn) [drawing 995] |
| 0 | Cn1ccc(-c2sc3nc(-c4nccn4C)nc(NC4CCOCC4)c3c2-c2ccccc2)n1 [drawing 997] |
| 0 | COC1CCN(c2nc(-c3nccn3C)nc3sc(-c4ccn(C)n4)c(-c4ccccc4)c23)C1 (stereo not drawn) [drawing 998] |

Continued, compound first:

| SMILES | inhibition at 20 µM [%] |
| --- | --- |
| COc1cccc(Cn2ccnc2-c2nc(O)c3scc(-c4ccccn4)c3n2)c1 [drawing 985] | 26 to 50 |
| Oc1nc(-c2nccn2Cc2ccccn2)nc2c(-c3ccccn3)csc12 [drawing 986] | 51 to 75 |
| COCCn1ccnc1-c1nc(O)c2scc(-c3ccccn3)c2n1 [drawing 987] | 51 to 75 |
| Cn1ccnc1-c1nc(O)c2scc(-c3ccccn3)c2n1 [drawing 988] | 51 to 75 |
| COCC(C)Nc1nc(-c2nccn2C)nc2sc(-c3ccccc3Cl)c(-c3cscn3)c12 (stereo not drawn) [drawing 989] | 26 to 50 |
| COCC(C)Nc1nc(-c2nccn2C)nc2sc(-c3cccc(OC)c3)c(-c3cscn3)c12 (stereo not drawn) [drawing 990] | 26 to 50 |
| Cn1ccc(-c2sc3nc(-c4nccn4C)nc(N4CCC5(CCOC5)C4)c3c2-c2ccccc2)n1 (stereo not drawn) [drawing 992] | 0 |
| Cn1ccc(-c2sc3nc(-c4nccn4C)nc(NCC4CCOC4)c3c2-c2ccccc2)n1 (stereo not drawn) [drawing 996] | 26 to 50 |
